Patent US9481654B2, “Compositions and methods for inhibition of the JAK pathway” (Rigel Pharmaceuticals, Inc., priority 2006, dated 2016)

What follows are molecules tested on IFNγ induced ICAM-1 (CD54) up-regulation in A549 lung epithelial cells (JAK/Stat pathway) (assay: A549 Epithelial Line Stimulated with IFNγ (ICAM-1 surface expression, flow cytometry)). Settings: Table III Example 5.
Type: cell-based, human
Description: The activity of the compounds of the invention may additionally be characterized by assaying the effect of the 2,4-pyrimidinediamine compounds described herein on A549 lung epithelial cells and U937 cells. A549 lung epithelial cells and U937 cells up-regulate ICAM-1 (CD54) surface expression in response to a variety of different stimuli. Therefore, using ICAM-1 expression as readout, test compound effects on different signaling pathways can be assessed in the same cell type. Stimulation with IL-1β through the IL-1β receptor activates the TRAF6/NFκB pathway resulting in up-regulation of ICAM-1. IFNγ induces ICAM-1 up-regulation through activation of the JAK1/JAK2 pathway. The up-regulation of ICAM-1 can be quantified by flow cytometry across a compound dose curve and EC50 values are calculated. Exemplary assays of this type are described in greater detail in Examples 5 and 6.
A549 lung epithelial cells up-regulate ICAM-1 (CD54) surface expression in response to a variety of different stimuli. Therefore, using ICAM-1 expression as readout, compound effects on different signaling pathways can be assessed in the same cell type. IFNγ up-regulates ICAM-1 through activation of the JAK/Stat pathway. In this example, the up-regulation of ICAM-1 by IFNγ was assessed.
The A549 lung epithelial carcinoma cell line originated from the American Type Culture Collection. Routine culturing was with F12K media (Mediatech Inc., Lenexa, Kans., Cat. No. 10-025-CV) with 10% fetal bovine serum, 100 I.U. penicillin and […] streptomycin (complete F12k media). Cells were incubated in a humidified atmosphere of 5% CO2 at 37° C. Prior to use in the assay, A549 cells were washed with PBS and trypsinized (Mediatech Inc., Cat. No. 25-052-CI) to lift the cells. The trypsin cell suspension was neutralized with complete F12K media and centrifuged to pellet the cells. The cell pellet was resuspended in complete F12K media at a concentration of 2.0×10^5/mL. Cells were seeded at 20,000 per well, 100 μL total volume, in a flat bottom tissue culture plate and allowed to adhere overnight.
On day two, A549 cells were pre-incubated with a 2,4-pyrimidinediamine test compound or DMSO (control) (Sigma-Aldrich, St. Louis, Mo., Catalog No. D2650) for 1 hour. The cells were then stimulated with IFNγ (75 ng/mL) (Peprotech Inc., Rocky Hill, N.J., Cat. No. 300-02) and allowed to incubate for 24 hours. The final test compound dose range was 30 μM to 14 nM in 200 μL F12K media containing 5% FBS, 0.3% DMSO.
On day three, the cell media was removed and the cells were washed with 200 μL PBS (phosphate buffered saline). Each well was trypsinized to dissociate the cells, then neutralized by addition of 200 μL complete F12K media. Cells were pelleted and stained with an APC conjugated mouse anti-human ICAM-1 (CD54) (BD Pharmingen, San Diego, Calif., Catalog #559771) antibody for 20 minutes at 4° C. Cells were washed with ice cold FACS buffer (PBS+2% FBS) and surface ICAM-1 expression was analyzed by flow cytometry. Detection was performed using a BD LSR I System Flow Cytometer, purchased from BD Biosciences of San Jose, Calif. Events were gated for live scatter and the geometric mean was calculated (Becton-Dickinson CellQuest software version 3.3, Franklin Lakes, N.J.). Geometric means were plotted against the compound concentration to generate a dose response curve.

Row | Structure (SMILES) | IC50 [µM]
1 | Cc1ccc(Nc2ncc(C)c(Nc3ccc(CNS(=O)(=O)C4CC4)cc3)n2)cc1S(N)(=O)=O [Compound I-47, N2-(3-aminosulfonyl-4-methyl)phenyl-N4-(4-cyclopropylsulfonylaminomethyl)phenyl-5-methyl-2,4-pyrimidinediamine] | 2.89
2 | NS(=O)(=O)c1ccc(Nc2ncc(F)c(Nc3ccc(CNS(=O)(=O)CC(F)(F)F)cc3)n2)cc1 [Compound I-48, N2-(4-aminosulfonyl)phenyl-5-fluoro-N4-(4-trifluoroethylsulfonylaminomethyl)phenyl-2,4-pyrimidinediamine] | 29.9
3 | NS(=O)(=O)c1cccc(Nc2ncc(F)c(Nc3ccc(CNS(=O)(=O)CC(F)(F)F)cc3)n2)c1 [Compound I-49, N2-(3-aminosulfonyl)phenyl-5-fluoro-N4-(4-trifluoroethylsulfonylaminomethyl)phenyl-2,4-pyrimidinediamine] | 78.9
4 | Cc1ccc(Nc2ncc(F)c(Nc3ccc(CNS(=O)(=O)CC(F)(F)F)cc3)n2)cc1S(N)(=O)=O [Compound I-50, N2-(3-aminosulfonyl-4-methyl)phenyl-5-fluoro-N4-(4-trifluoroethylsulfonylaminomethyl)phenyl-2,4-pyrimidinediamine] | 9.35
5 | Cc1cnc(Nc2cccc(S(N)(=O)=O)c2)nc1Nc1cccc(CNS(=O)(=O)C2CC2)c1 [Compound I-51, N2-(3-aminosulfonyl)phenyl-N4-(3-cyclopropylsulfonylaminomethyl)phenyl-5-methyl-2,4-pyrimidinediamine] | 2.8
6 | Cc1ccc(Nc2ncc(C)c(Nc3cccc(CNS(=O)(=O)C4CC4)c3)n2)cc1S(N)(=O)=O [Compound I-52, N2-(3-aminosulfonyl-4-methyl)phenyl-N4-(3-cyclopropylsulfonylaminomethyl)phenyl-5-methyl-2,4-pyrimidinediamine] | 2.55
7 | Cc1cnc(Nc2cccc(S(N)(=O)=O)c2)nc1Nc1ccc(CCNS(=O)(=O)C2CC2)cc1 [Compound I-54, N2-(3-aminosulfonyl)phenyl-N4-[4-(2-cyclopropylsulfonylamino)ethyl]phenyl-5-methyl-2,4-pyrimidinediamine] | 4.69
8 | Cc1ccc(Nc2ncc(C)c(Nc3ccc(CCNS(=O)(=O)C4CC4)cc3)n2)cc1S(N)(=O)=O [Compound I-55, N2-(3-aminosulfonyl-4-methyl)phenyl-N4-[4-(2-cyclopropylsulfonylamino)ethyl]phenyl-5-methyl-2,4-pyrimidinediamine] | 3.88
9 | Cc1ccc(Nc2ncc(F)c(Nc3ccc(CNS(=O)(=O)C(C)C)cc3)n2)cc1S(N)(=O)=O [Compound I-67, N2-(3-aminosulfonyl-4-methyl)phenyl-5-fluoro-N4-(4-isopropylsulfonylaminomethyl)phenyl-2,4-pyrimidinediamine] | 3.29
10 | NS(=O)(=O)c1ccc(Nc2ncc(F)c(Nc3ccc(CNS(=O)(=O)C4CCCC4)cc3)n2)cc1 [Compound I-68, N2-(4-aminosulfonyl)phenyl-N4-(4-cyclopentylsulfonylaminomethyl)phenyl-5-fluoro-2,4-pyrimidinediamine] | 4.95
11 | NS(=O)(=O)c1cccc(Nc2ncc(F)c(Nc3ccc(CNS(=O)(=O)C4CCCC4)cc3)n2)c1 [Compound I-69, N2-(3-aminosulfonyl)phenyl-N4-(4-cyclopentylsulfonylaminomethyl)phenyl-5-fluoro-2,4-pyrimidinediamine] | 7.76
12 | Cc1ccc(Nc2ncc(F)c(Nc3ccc(CNS(=O)(=O)C4CCCC4)cc3)n2)cc1S(N)(=O)=O [Compound I-70, N2-(3-aminosulfonyl-4-methyl)phenyl-N4-(4-cyclopentylsulfonylaminomethyl)phenyl-5-fluoro-2,4-pyrimidinediamine] | 2.58
13 | NS(=O)(=O)c1ccc(Nc2ncc(F)c(Nc3ccc(CNS(=O)(=O)C4CCCCC4)cc3)n2)cc1 [Compound I-71, N2-(4-aminosulfonyl)phenyl-N4-(4-cyclohexylsulfonylaminomethyl)phenyl-5-fluoro-2,4-pyrimidinediamine] | 10.5
14 | NS(=O)(=O)c1cccc(Nc2ncc(F)c(Nc3ccc(CNS(=O)(=O)C4CCCCC4)cc3)n2)c1 [Compound I-72, N2-(3-aminosulfonyl)phenyl-N4-(4-cyclohexylsulfonylaminomethyl)phenyl-5-fluoro-2,4-pyrimidinediamine] | 2.66
15 | Cc1ccc(Nc2ncc(F)c(Nc3ccc(CNS(=O)(=O)C4CCCCC4)cc3)n2)cc1S(N)(=O)=O [Compound I-73, N2-(3-aminosulfonyl-4-methyl)phenyl-N4-(4-cyclohexylsulfonylaminomethyl)phenyl-5-fluoro-2,4-pyrimidinediamine] | 3.57
16 | CCCN(Cc1ccc(Nc2nc(Nc3cccc(S(N)(=O)=O)c3)ncc2C)cc1)S(=O)(=O)C1CC1 [Compound I-80, N2-(3-aminosulfonyl)phenyl-N4-[4-(N-cyclopropylsulfonyl-N-propylamino)methyl]phenyl-5-methyl-2,4-pyrimidinediamine] | 4.13
17 | Cc1cnc(Nc2cc(S(N)(=O)=O)cc(S(N)(=O)=O)c2)nc1Nc1ccc(CNS(=O)(=O)C2CC2)cc1 [Compound I-84, N4-(4-cyclopropylsulfonylaminomethyl)phenyl-N2-(3,5-diaminosulfonyl)phenyl-5-methyl-2,4-pyrimidinediamine] | 9.53
18 | Cc1cnc(Nc2cccc(S(N)(=O)=O)c2)nc1Nc1ccc(CNS(=O)(=O)CC(F)(F)F)cc1 [Compound I-97, N2-(3-aminosulfonyl)phenyl-5-methyl-N4-(4-trifluoroethylsulfonylaminomethyl)phenyl-2,4-pyrimidinediamine] | 13.3
19 | Cc1ccc(Nc2ncc(Cl)c(Nc3ccc(CNS(=O)(=O)C4CC4)cc3)n2)cc1S(N)(=O)=O [Compound I-113, N2-(3-aminosulfonyl-4-methyl)phenyl-5-chloro-N4-(4-cyclopropylsulfonylaminomethyl)phenyl-2,4-pyrimidinediamine] | 0.888
20 | NS(=O)(=O)c1cccc(Nc2ncc(Cl)c(Nc3ccc(CNS(=O)(=O)C4CC4)cc3)n2)c1 [Compound I-114, N2-(3-aminosulfonyl)phenyl-5-chloro-N4-(4-cyclopropylsulfonylaminomethyl)phenyl-2,4-pyrimidinediamine] | 5.65
21 | NS(=O)(=O)c1ccc(Nc2ncc(Cl)c(Nc3ccc(CNS(=O)(=O)C4CC4)cc3)n2)cc1 [Compound I-115, N2-(4-aminosulfonyl)phenyl-5-chloro-N4-(4-cyclopropylsulfonylaminomethyl)phenyl-2,4-pyrimidinediamine] | 2.72
22 | CCC(=O)N(Cc1cccc(Nc2nc(Nc3cccc(S(N)(=O)=O)c3)ncc2C)c1)S(=O)(=O)C1CC1 [Compound I-116, N2-(3-aminosulfonyl)phenyl-N4-[3-(N-cyclopropylsulfonyl-N-propionyl)aminomethyl]phenyl-5-methyl-2,4-pyrimidinediamine] | 1.83
23 | Cc1ccc(Nc2ncc(C)c(Nc3ccc(CNS(=O)(=O)C(C)C)cc3)n2)cc1S(N)(=O)=O [Compound I-117, N2-(3-aminosulfonyl-4-methyl)phenyl-N4-(4-isopropylsulfonylaminomethyl)phenyl-5-methyl-2,4-pyrimidinediamine] | 2.17
24 | Cc1cnc(Nc2cccc(S(N)(=O)=O)c2)nc1Nc1ccc(CNS(=O)(=O)C(C)C)cc1 [Compound I-118, N2-(3-aminosulfonyl)phenyl-N4-(4-isopropylsulfonylaminomethyl)phenyl-5-methyl-2,4-pyrimidinediamine] | 2.48
25 | Cc1cnc(Nc2cccc(S(N)(=O)=O)c2)nc1Nc1ccc(CNS(=O)(=O)C2CC2)c(Cl)c1 [Compound I-119, N2-(3-aminosulfonyl)phenyl-N4-(3-chloro-4-cyclopropylsulfonylaminomethyl)phenyl-5-methyl-2,4-pyrimidinediamine] | 4.42
